# From patent publication US9149475B2, “Protein kinase C inhibitors and uses thereof” (Rigel Pharmaceuticals, Inc., priority 2009, dated 2015)
# pIC50: −log10 of the molar value.
# Test system: Human primary T cells
# Assay: IL-2 ELISA, human primary T cell, anti-CD3+CD28+ (whole cell assay)
# Format: cell-based
# Conditions: human primary T cells stimulated with anti-CD3 + anti-CD28, 24 hours
# Procedure, shortened: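 IL-2 secreted over 24 h at 37° C was quantified by ELISA after plate-bound αCD3 (1 μg/ml) and αCD28 (5 μg/ml) stimulation, or PMA (0.5 ng/ml) with ionomycin (0.1 μM) as counter-screen. Cells were IL-2-starved primary human T cells, expanded from volunteer PBMC and exposed to compound for 1 hr beforehand.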
SMILES,pIC50,"pIC50 (Homo sapiens, T-cell, 24 h)"
"CC1(C)CC(Nc2nc(Nc3cccc(-n4nnnc4SCC(F)(F)F)c3)ncc2F)CC(C)(C)N1 [Compound I-70, 5-fluoro-N4-(2,2,6,6-tetramethylpiperidin-4-yl)-N2-{3-[5-(2,2,2-trifluoroethyl)thio]-1H-tetrazol-1-yl}phenyl-2,4-pyrimidinediamine]",> 6.60,
"CN1C(C)(C)CC(Nc2nc(Nc3cccc(-n4nnnc4SCC(F)(F)F)c3)ncc2C(N)=O)CC1(C)C [Compound I-71, 5-aminocarbonyl-N4-(1,2,2,6,6-pentamethylpiperidin-4-yl)-N2-{3-[5-(2,2,2-trifluoroethyl)thio]-1H-tetrazol-1-yl}phenyl-2,4-pyrimidinediamine]",6.30 to 6.60,
"CC1(C)CC(Nc2nc(Nc3cccc(-n4nnnc4SCC(F)(F)F)c3)ncc2C(N)=O)CC(C)(C)N1 [Compound I-72, 5-aminocarbonyl-N4-(2,2,6,6-tetramethylpiperidin-4-yl)-N2-{3-[5-(2,2,2-trifluoroethyl)thio]-1H-tetrazol-1-yl}phenyl-2,4-pyrimidinediamine]",< 6.00,
"CN1C(C)(C)CC(Nc2nc(Nc3ccc(F)c(-n4cnnn4)c3)ncc2C#N)CC1(C)C [Compound I-73, 5-cyano-N2-[4-fluoro-3-(1H-tetrazol-1-yl)]phenyl-N4-(1,2,2,6,6-pentamethylpiperidin-4-yl)-2,4-pyrimidinediamine]",> 6.60,
"CCCc1nnnn1-c1cc(Nc2ncc(F)c(NC3CC(C)(C)NC(C)(C)C3)n2)ccc1OC [Compound I-74, 5-fluoro-N2-[4-methoxy-3-(5-propyl-1H-tetrazol-1-yl)]phenyl-N4-(2,2,6,6-tetramethylpiperidin-4-yl)-2,4-pyrimidinediamine]",> 6.60,
"CCCc1nnnn1-c1cc(Nc2ncc(C(N)=O)c(NC3CC(C)(C)N(C)C(C)(C)C3)n2)ccc1OC [Compound I-75, 5-aminocarbonyl-N2-[4-methoxy-3-(5-propyl-1H-tetrazol-1-yl)]phenyl-N4-(1,2,2,6,6-pentamethylpiperidin-4-yl)-2,4-pyrimidinediamine]",6.00 to 6.30,
"CCCc1nnnn1-c1cc(Nc2ncc(C(N)=O)c(NC3CC(C)(C)NC(C)(C)C3)n2)ccc1OC [Compound I-76, 5-aminocarbonyl-N2-[4-methoxy-3-(5-propyl-1H-tetrazol-1-yl)]phenyl-N4-(2,2,6,6-tetramethylpiperidin-4-yl)-2,4-pyrimidinediamine]",< 6.00,
"CC1(C)CC(Nc2nc(Nc3ccc(F)c(-n4cnnn4)c3)ncc2C#N)CC(C)(C)N1 [Compound I-77, 5-cyano-N2-[4-fluoro-3-(1H-tetrazol-1-yl)]phenyl-N4-(2,2,6,6-tetramethylpiperidin-4-yl)-2,4-pyrimidinediamine]",6.30 to 6.60,
"CN1C(C)(C)CC(Nc2nc(Nc3cccc(-n4nnnc4SCC(F)(F)F)c3)ncc2C#N)CC1(C)C [Compound I-78, 5-cyano-N4-(1,2,2,6,6-pentamethylpiperidin-4-yl)-N2-{3-[5-(2,2,2-trifluoroethyl)thio]-1H-tetrazol-1-yl}phenyl-2,4-pyrimidinediamine]",> 6.60,
"CC1(C)CC(Nc2nc(Nc3cccc(-n4nnnc4SCC(F)(F)F)c3)ncc2C#N)CC(C)(C)N1 [Compound I-79, 5-cyano-N4-(2,2,6,6-tetramethylpiperidin-4-yl)-N2-{3-[5-(2,2,2-trifluoroethyl)thio]-1H-tetrazol-1-yl}phenyl-2,4-pyrimidinediamine]",> 6.60,
"CCCc1nnnn1-c1cc(Nc2ncc(C#N)c(NC3CC(C)(C)N(C)C(C)(C)C3)n2)ccc1OC [Compound I-80, 5-cyano-N2-[4-methoxy-3-(5-propyl-1H-tetrazol-1-yl)]phenyl-N4-(1,2,2,6,6-pentamethylpiperidin-4-yl)-2,4-pyrimidinediamine]",> 6.60,
"CCCc1nnnn1-c1cc(Nc2ncc(C#N)c(NC3CC(C)(C)NC(C)(C)C3)n2)ccc1OC [Compound I-81, 5-cyano-N2-[4-methoxy-3-(5-propyl-1H-tetrazol-1-yl)]phenyl-N4-(2,2,6,6-tetramethylpiperidin-4-yl)-2,4-pyrimidinediamine]",6.30 to 6.60,
"CCc1nnnn1-c1cc(Nc2ncc(C(N)=O)c(NC3CC(C)(C)NC(C)(C)C3)n2)ccc1OC(F)F [Compound I-83, 5-aminocarbonyl-N2-[4-difluoromethoxy-3-(5-ethyl-1H-tetrazol-1-yl)]phenyl-N4-(2,2,6,6-tetramethylpiperidin-4-yl)-2,4-pyrimidinediamine]",< 6.00,
"CCc1nnnn1-c1cc(Nc2ncc(C#N)c(NC3CC(C)(C)NC(C)(C)C3)n2)ccc1OC(F)F [Compound I-84, 5-cyano-N2-[4-difluoromethoxy-3-(5-ethyl-1H-tetrazol-1-yl)]phenyl-N4-(2,2,6,6-tetramethylpiperidin-4-yl)-2,4-pyrimidinediamine]",< 6.00,
"CC1(C)CC(Nc2nc(Nc3cccc(-c4nnn[nH]4)c3)ncc2C#N)CC(C)(C)N1 [Compound I-85, 5-Cyano-N4-(2,2,6,6-tetramethylpiperidin-4-yl)-N2-[3-(tetrazol-5-yl)]phenyl-2,4-pyrimidinediamine]",< 6.00,
"CC(C)n1nnnc1-c1cccc(Nc2ncc(C#N)c(NC3CC(C)(C)N(C)C(C)(C)C3)n2)c1 [Compound I-88, 5-Cyano-N2-{3-[1-N-isopropyl-(tetrazol-5-yl)]}phenyl-N4-(1,2,2,6,6-pentamethylpiperidin-4-yl)-2,4-pyrimidinediamine]",> 6.60,
"COc1ccc(Nc2ncc(F)c(NC3CC(C)(C)NC(C)(C)C3)n2)cc1-n1c(C)ccc1C [Compound I-93, N2-[3-(2,5-Dimethyl-pyrrol-1-yl)-4-methoxy]phenyl-5-fluoro-N4-(2,2,6,6-tetramethylpiperidin-4-yl)-2,4-pyrimidinediamine]",> 6.60,
"CN1C(C)(C)CC(Nc2nc(Nc3cccc(-c4nnnn4C4CC4)c3)ncc2C#N)CC1(C)C [Compound I-94, 5-Cyano-N2-{3-[1-N-cyclopropyl-(tetrazol-5-yl)]}phenyl-N4-(1,2,2,6,6-pentamethylpiperidin-4-yl)-2,4-pyrimidinediamine]",> 6.60,
"CC1(C)CC(Nc2nc(Nc3cccc(-c4nnnn4C4CC4)c3)ncc2C#N)CC(C)(C)N1 [Compound I-95, 5-Cyano-N2-{3-[1-N-cyclopropyl-(tetrazol-5-yl)]}phenyl-N4-(2,2,6,6-tetramethylpiperidin-4-yl)-2,4-pyrimidinediamine]",6.30 to 6.60,
"CN1C(C)(C)CC(Nc2nc(Nc3cccc(-c4nnnn4CCF)c3)ncc2C#N)CC1(C)C [Compound I-96, 5-Cyano-N2-{3-[1-N-(2-fluoroethyl)-(tetrazol-5-yl)]}phenyl-N4-(1,2,2,6,6-pentamethylpiperidin-4-yl)-2,4-pyrimidinediamine]",> 6.60,
"CC1(C)CC(Nc2nc(Nc3cccc(-c4nnnn4CCF)c3)ncc2C#N)CC(C)(C)N1 [Compound I-97, 5-Cyano-N2-{3-[1-N-(2-fluoroethyl)-(tetrazol-5-yl)]}phenyl-N4-(2,2,6,6-tetramethylpiperidin-4-yl)-2,4-pyrimidinediamine]",< 6.00,
"Cc1ccc(C)n1-c1cc(Nc2ncc(F)c(NC3CC(C)(C)N(C)C(C)(C)C3)n2)ccc1F [Compound I-100, N2-[3-(2,5-Dimethyl-pyrrol-1-yl)-4-fluoro]phenyl-5-fluoro-N4-(1,2,2,6,6-pentamethylpiperidin-4-yl)-2,4-pyrimidinediamine]",> 6.60,
"Cc1ccc(C)n1-c1cc(Nc2ncc(F)c(NC3CC(C)(C)NC(C)(C)C3)n2)ccc1F [Compound I-101, N2-[3-(2,5-Dimethyl-pyrrol-1-yl)-4-fluoro]phenyl-5-fluoro-N4-(2,2,6,6-tetramethylpiperidin-4-yl)-2,4-pyrimidinediamine]",6.30 to 6.60,
"Cc1ccc(C)n1-c1cc(Nc2ncc(F)c(NC3CC(C)(C)N(C)C(C)(C)C3)n2)ccc1C#N [Compound I-102, N2-[4-Cyano-3-(2,5-dimethyl-pyrrol-1-yl)]phenyl-5-fluoro-N4-(1,2,2,6,6-pentamethylpiperidin-4-yl)-2,4-pyrimidinediamine]",6.30 to 6.60,
"Cc1ccc(C)n1-c1cc(Nc2ncc(F)c(NC3CC(C)(C)N(C)C(C)(C)C3)n2)ccc1OC(=O)NC(C)C [Compound I-103, N2-[3-(2,5-Dimethyl-pyrrol-1-yl)-4-(isopropylaminocarboxyloxy)]phenyl-5-fluoro-N4-(1,2,2,6,6-pentamethylpiperidin-4-yl)-2,4-pyrimidinediamine]",6.00 to 6.30,
"CC(C)N1CCC(Oc2ccc(Nc3ncc(F)c(NC4CC(C)(C)NC(C)(C)C4)n3)cc2OC(F)F)CC1 [Compound I-104, N2-(4-(1-isopropylpiperidin-4-yloxy)-3-(difluoromethoxy)phenyl)-5-fluoro-N4-(2,2,6,6-tetramethylpiperidin-4-yl)pyrimidine-2,4-diamine]",,> 6.60
"CC(C)N1CCC(Oc2ccc(Nc3ncc(F)c(NC4CC(C)(C)N(C)C(C)(C)C4)n3)cc2OC(F)F)CC1 [Compound I-105, N2-(4-(1-isopropylpiperidin-4-yloxy)-3-(difluoromethoxy)phenyl)-5-fluoro-N4-(1,2,2,6,6-pentamethylpiperidin-4-yl)pyrimidine-2,4-diamine]",,> 6.60
"CC1(C)CC(Nc2nc(Nc3cc(OC(F)F)cc(C(F)(F)F)c3)ncc2F)CC(C)(C)N1 [Compound I-106, N2-(3-(difluoromethoxy)-5-(trifluoromethyl)phenyl)-5-fluoro-N4-(2,2,6,6-tetramethylpiperidin-4-yl)pyrimidine-2,4-diamine]",,6.00 to 6.30
"CN1C(C)(C)CC(Nc2nc(Nc3cc(OC(F)F)cc(C(F)(F)F)c3)ncc2F)CC1(C)C [Compound I-107, N2-(3-(difluoromethoxy)-5-(trifluoromethyl)phenyl)-5-fluoro-N4-(1,2,2,6,6-pentamethylpiperidin-4-yl)pyrimidine-2,4-diamine]",,6.30 to 6.60
"CCOc1ccc(Nc2ncc(F)c(NC3CC(C)(C)NC(C)(C)C3)n2)cc1OC(F)F [Compound I-108, N2-(3-(difluoromethoxy)-4-ethoxyphenyl)-5-fluoro-N4-(2,2,6,6-tetramethylpiperidin-4-yl)pyrimidine-2,4-diamine]",,> 6.60
